Measured values as given in a melting point compilation (Tetko et al.; mined from patent text by program, amines drawn as free bases though some values may be those of a salt).

SMILES | melting point
Clc1cc(NC23CC4CC(CC(C4)C2)C3)nc(N2CCCC2)n1 | 186 to 190 °C
O=C(Nc1ccc2ccc(Cl)nc2n1)c1cncs1 | 292 °C
COc1ccc(C(=O)Nc2ccc(F)c(F)c2)cc1NS(=O)(=O)c1ccc(C#N)cc1 | 228 to 230 °C
COc1ccc(C=O)c(Cl)c1OC(C)=O | 48 to 50 °C
Cc1ccc(N)cc1Nc1cc(-c2cncnc2)ccn1 | 179 to 180 °C
CC(C)=CCc1cc(C2CCc3ccc(O)cc3O2)ccc1O (centres undefined) | 116 to 117 °C
Cc1c(C)c2c(c(C)c1OCC=Cc1ccccc1)C(c1ccc(C(C)C)cc1)C(C)(C)O2 (centres undefined) | 106 to 107 °C
CN1CCC(OC2c3ccccc3CCn3cc(-c4ccccc4)nc32)CC1 (centres undefined) | 113 °C
CCC1Oc2ccc(C(C)C(=O)O)cc2C(=O)C1C (centres undefined) | 114 to 115 °C
Oc1ccc2c(c1)ncn2-c1ccc2cccc(Cl)c2n1 | > 250 °C
CCCCCCCC(=O)N(C)Cc1cccc(-c2ccc(Nc3ccccc3C(=O)O)cc2)c1 | 45 °C
CNC(=O)c1ccc(C=C2CC3CCC(C2)N3)cc1 | 164 to 166 °C
COc1ccc(C(=O)CC(=O)C(F)(F)C(F)(F)F)cc1OC | 72 °C
O=C(OCC(Cl)(Cl)Cl)N1CCC(C2c3cccc4c3N(CC4)c3ccccc3N2C(=O)OCC(Cl)(Cl)Cl)CC1 (centres undefined) | 202 to 205 °C
CC(C)(C)OC(=O)Cn1ncc2c1CCN(C(=O)OC(C)(C)C)C2 | 126 to 127 °C
O=C1Nc2c(C(F)(F)F)cccc2C12COc1cc3c(cc12)OCO3 (centres undefined) | 245 to 248 °C
Cc1cc(OCc2ccc(-c3ccccc3-c3nnn(C(c4ccccc4)(c4ccccc4)c4ccccc4)n3)cc2)c(CCl)c(C)n1 | 110 to 112 °C
Nc1c(-c2ccc(Oc3ccccc3)cc2)nc2ccc(C(F)(F)F)cc2c1C(=O)O | 220 to 225 °C
COc1cc(C)c(C(=O)c2c(OC)cnc(Cl)c2Cl)c(OC)c1OC | 98 to 99 °C
CC(=O)Nc1ccc(C=NNC(N)=S)cc1Cl | 235 to 238 °C
CCCCCCCCCCCCCCCCNc1ccc(C(=O)OC)cc1 | 74 to 75 °C
N#Cc1nn(-c2c(Cl)cc(C(F)(F)F)cc2Cl)c(N)c1C=O | 194 to 197 °C
OCc1cnoc1-c1ccc(C(F)(F)F)cc1 | 106 to 107 °C
COC(c1ccc(NC(=O)c2c(C(F)(F)F)nn(C)c2C)cc1CC(C)C)(C(F)(F)F)C(F)(F)F | 138 to 139 °C
Cc1nc2cc(O)c(C)cc2o1 | 198 to 200 °C

SMILES | melting point
Ic1cnc(-c2cccs2)s1 | 117 to 119 °C
COc1ccc2c(c1)c(Cc1cc(=O)n(-c3cc(Cl)cc(Cl)c3)[nH]1)c(C)n2C(=O)c1ccc(Cl)cc1 | 104 to 105 °C
COc1ccc2c(=O)cc(C(OC)OC)oc2c1 | 99 to 101 °C
CCC(=O)NS(=O)(=O)c1cccc(-c2cc(-c3nc(-c4ccc(C(F)(F)F)nc4)cc(C(F)(F)F)n3)ccn2)c1 | 242 °C
Cc1ccc(S(=O)(=O)C[N+](=O)[O-])s1 | 73 to 74 °C
COCCc1nc2c(N)nc3ccccc3c2n1CCCNS(=O)(=O)c1cccc2c(N(C)C)cccc12 | 210 to 215 °C
CCCC(NOCC)=C1C(=O)CC(c2cc3ccccc3[nH]c2=O)CC1=O (centres undefined) | 155 to 157 °C
CCOC(=O)Cn1c(-c2ccccc2)nc2cccnc21 | 93 to 95 °C
O=C(O)CCC(=O)N[C@@H]1CN2C(=O)N(c3cc(Cl)nc(Cl)c3)C(=O)[C@@]2(Cc2ccc(OC(F)(F)F)cc2)C1 | 102 °C
COc1cc(I)c(O)c(C=O)c1 | 103 to 105 °C
NC(=O)[C@@H]1C[C@H](F)CN1C(=O)CCl | 95 to 96 °C
NC(=O)C1CCN(CCOc2ccccc2CCc2ccccc2)CC1 | 60 to 63 °C
CC(n1cncn1)C(O)(Cn1cncn1)c1ccc(Cl)cn1 (centres undefined) | 156 to 157 °C
Cc1nc2c(C(=O)NC(C)(C(N)=O)C(C)C)c(C(=O)O)ccc2n1Cc1ccccc1 (centres undefined) | 145 to 150 °C
Nc1ccc(P(=O)(O)O)cc1 | 257 to 260 °C
Cn1ncnc1COc1nn2c(-c3cccc(F)c3)nncc2c1-c1ccccc1 | 198 °C
COc1cc(C2C3=C(COC3=O)Nc3ccc4cc[nH]c4c32)cc(OC)c1OC (centres undefined) | 299 to 301 °C
CCOC(=O)N1CCOC(CN2C(=O)c3ccccc3C2=O)C1 (centres undefined) | 113 to 115 °C
CC1=C(c2ccc(C(=O)N3Cc4ccc(C(=O)O)n4Cc4ccccc43)cc2)CCCC1 | 171 °C
COC(=O)c1ccccc1NC(=O)OC1CC2C(=O)NC3(C(=O)NS(=O)(=O)C4CC4)CC3C=CCOCCCC(NC(=O)OC(C)(C)C)C(=O)N2C1 (centres undefined) | 147 to 149 °C
CNc1cc(O)cc(O)c1 | 130 °C
O=C1c2ccccc2C(=O)N1CC(=O)N1Cc2ccccc2Oc2ccc(Cl)cc21 | 184 to 185 °C
Cc1ncoc1-c1nc(-c2c(F)cccc2F)nn1C | 113 to 115 °C
CSc1ncc(Br)cn1 | 63 to 65 °C
